According to patent US20230331690A1, “THC DERIVATIVES, ORAL DOSAGE FORMS COMPRISING SAME, USES THEREOF FOR TREATING DISEASES AND DISORDERS AND SYNTHESIS THEREOF” (BAR-ILAN UNIVERSITY, priority 2020, published 2023):
Several values for one entry are separate records, joined by “and”; a condition that tells them apart may be missing. Equal entries are not always repeated.

System: hind paw of mice
Assay: Electronic Von-Frey mechanical sensitivity (withdrawal thresholds) after Paclitaxel-induced neuropathic pain
Type: in vivo
Details: for Withdrawal test, test 1 / Withdrawal test, test 4 / Withdrawal test, test 5 / Withdrawal test, test 2 / Withdrawal test, test 3 / Withdrawal test, test 6: per animal; for Withdrawal test, All group average: 8 mice; for Withdrawal test, Average: average per animal; for Withdrawal test, test 6: additional test
Experimental: Mechanical sensitivity was evaluated by measuring the changes in tactile sensitivity in the hind paw of mice, using an Electronic Von-Frey apparatus (EVF). Withdrawal thresholds were measured, using the EVF apparatus, first at baseline (time=0) and then following drug, in a few periods after administration, by applying an accurate force on specific areas of the skin and measuring the needed force for the mouse to lift its paw.
Paclitaxel was utilized for the stimulation of a chemotherapy-induced neuropathic pain. Paclitaxel is anti-cancer chemotherapy drug classified as a “plant alkaloid” and an “antimicrotubule agent”.
Mice were divided into three groups of 8 mice each, as follows: • (a) Group no. 1—Morphine as positive control; • (b) Group no. […] 3—synthetic THC derivative 9-Desmethyl THC.
A portion of Paclitaxel was administered to each mouse by i.p. injection, on days 1, 3, 5 and 7 from the beginning of the experiment. At day 8, withdrawal thresholds were measured first at baseline (time=0), thereafter each mouse received a single portion of a drug substance, at 5 mg/Kg body weight concentration, by oral gavage and measurements took place.
The first checking point was 1 hour after administration of each drug. For every mouse, its threshold for the pain perception in which it removes its hind paw after the stabbing of the Von-Frey hair has been checked. Needed force (in gram force units) was measured each time and was recorded for every checking. This test was repeated 5 times for each mouse consecutively.
This procedure was repeated for all the three groups. The next checking point was 3 hours after administration, where the last withdrawal thresholds measurements were performed on the next morning, on day 9, which was 24 hours after administration.
Morphine was utilized as a positive control where group no. 1 mice received morphine (dissolved in a saline solution (0.9%) and injected subcutaneously) as an analgesic agent, prior to the mechanical sensitivity tests.
The tests described in this example are complicated and depend on numerous factors. Accordingly, results above 10.0 gram force (marked with an asterisk) were not included in the evaluation of the experimental data. In cases of exceptional results, an additional test was performed mouse (test 6) in order to assure the exceptional result.

[1] = t = 1 h after 5 mg/Kg, * values excluded
[2] = t = 3 h after 5 mg/Kg, * values excluded
[3] = t = 24 h after 5 mg/Kg, * values excluded

SMILES: [2H]C([2H])([2H])C1=C[C@H]2c3c(O)cc(CCCCC)cc3OC(C)(C)[C@@H]2CC1([2H])[2H] [9-CD3-(8-D2)-THC]
- Withdrawal test, test 1 (t = 1 h after 5 mg/Kg single dose (oral gavage; morphine s.c.), * values >10.0 excluded from evaluation): 4.7 gram force and 4.8 gram force and 6.0 gram force (2×) and 5.0 gram force and 4.5 gram force and 6.1 gram force and 7.1 gram force
- Withdrawal test, All group average (t = 1 h after 5 mg/Kg): 5.68 gram force
- Withdrawal test, Average (t = 1 h after 5 mg/Kg): 4.54 gram force and 6.14 gram force and 6.76 gram force and 5.24 gram force and 5.64 gram force and 4.88 gram force and 6.16 gram force and 6.06 gram force
- Withdrawal test, test 4 (t = 1 h after 5 mg/Kg): 4.3 gram force and 4.5 gram force and 5.9 gram force and 6.7 gram force and 7.1 gram force and 4.7 gram force and 5.3 gram force and 4.2 gram force
- Withdrawal test, test 5 (t = 1 h after 5 mg/Kg): 5.4 gram force and 8.7 gram force and 7.7 gram force and 5.2 gram force and 4.3 gram force and 4.7 gram force and 4.5 gram force and 8.5 gram force
- Withdrawal test, test 2 [1]: 4.1 gram force and 5.8 gram force and 6.5 gram force and 4.0 gram force and 4.8 gram force and 4.6 gram force and 8.9 gram force and 5.6 gram force
- Withdrawal test, test 3 [1]: 4.2 gram force and 6.9 gram force and 7.7 gram force and 5.3 gram force and 7.5 gram force and 4.3 gram force and 6.1 gram force and 4.9 gram force
- Withdrawal test, All group average (t = 3 h after 5 mg/Kg): 5.67 gram force
- Withdrawal test, Average (t = 3 h after 5 mg/Kg): 5.16 gram force and 6.42 gram force and 4.72 gram force and 6.08 gram force (2×) and 5.64 gram force and 5.92 gram force and 5.30 gram force
- Withdrawal test, test 2 (t = 3 h after 5 mg/Kg): 5.9 gram force and 5.4 gram force and 5.0 gram force and 5.1 gram force (2×) and 9.2 gram force and 7.2 gram force and 6.5 gram force
- Withdrawal test, test 4 (t = 3 h after 5 mg/Kg): 4.7 gram force and 9.2 gram force and 4.3 gram force and 5.9 gram force and 6.2 gram force and 6.6 gram force and 5.2 gram force and 4.6 gram force
- Withdrawal test, test 5 (t = 3 h after 5 mg/Kg): 5.8 gram force and 6.7 gram force and 4.0 gram force (2×) and 6.4 gram force and 4.5 gram force and 4.8 gram force and 5.3 gram force
- Withdrawal test, test 6 (t = 3 h after 5 mg/Kg): 4.1 gram force and 4.9 gram force (2×) and 4.3 gram force
- Withdrawal test, test 1 [2]: 4.6 gram force and 4.4 gram force (2×) and 4.7 gram force and 6.9 gram force and 8.2 gram force and 7.6 gram force and 4.5 gram force
- Withdrawal test, test 3 [2]: 4.8 gram force and 6.4 gram force and 5.6 gram force (3×) and *12.8 gram force and 4.7 gram force and 4.9 gram force
- Withdrawal test, All group average (t = 24 h after 5 mg/Kg): 5.28 gram force
- Withdrawal test, Average (t = 24 h after 5 mg/Kg): 4.70 gram force and 5.96 gram force and 4.56 gram force and 6.33 gram force and 4.98 gram force and 5.32 gram force and 4.80 gram force and 5.56 gram force
- Withdrawal test, Change from b.l. (t = 24 h after 5 mg/Kg, group average vs baseline): −2.6%
- Withdrawal test, test 1 (t = 24 h after 5 mg/Kg): 6.0 gram force and 7.5 gram force and 4.0 gram force and 7.6 gram force and 5.0 gram force and 4.4 gram force and 4.9 gram force and 4.5 gram force
- Withdrawal test, test 2 (t = 24 h after 5 mg/Kg): 4.6 gram force and 6.0 gram force and 4.0 gram force and 7.5 gram force and 6.5 gram force and 5.3 gram force and 5.7 gram force and 5.0 gram force
- Withdrawal test, test 3 (t = 24 h after 5 mg/Kg): 4.6 gram force and 4.2 gram force and 4.0 gram force (2×) and 5.6 gram force and 5.4 gram force and 5.3 gram force and 6.8 gram force
- Withdrawal test, test 6 (t = 24 h after 5 mg/Kg): 4.5 gram force
- Withdrawal test, test 4 [3]: 4.3 gram force (2×) and 4.0 gram force and 6.8 gram force (2×) and *10.3 gram force and 4.1 gram force and 5.2 gram force
- Withdrawal test, test 5 [3]: 4.0 gram force (3×) and 8.1 gram force and 4.6 gram force and 5.1 gram force and 4.7 gram force and 6.3 gram force
